For data set [1], the system named is murine bone marrow progenitor cells. In words: Colony forming assay, murine bone marrow progenitor cells. Format: cell-based, mouse. Conditions: murine bone marrow progenitor cells; colony forming assay. From the text:
(§1) We observed less myelosuppression and less weight loss using TMZ and MX than using TMZ and BG. […] To test this hypothesis, we conducted in vitro experiments comparing the sensitivity to BG+TMZ and MX+TMZ in colon cancer cell lines with that of mouse bone marrow and human bone marrow cells. […] MX increased TMZ killing by 4 fold in SW480 cells. […] Topoisomerase (Topo) I and Topo II recognize spontaneous AP sites and form stable cleavable complexes. We hypothesized that AP sites formed during repair of TMZ-induced N7 mG and N3 mA adducts would also be recognized by Topo I and Topo II. However since Base Excision Repair [BER] is normally quite efficient, we further hypothesized that the impact of Topo I and Topo II would be most important after MX inhibition of BER; increased unrepaired MX adducted AP sites should increase Topo mediated strand breaks and apoptosis. Therefore, potentiation of TMZ cytotoxicity by MX would be dependent on Topo I and II. […] Lack of Topo I and II results in less cleavable complex formation, fewer double strand DNA breaks, and less apoptosis. We predict a better therapeutic index for the combination of MX/TMZ than observed with BG/TMZ because of the relative overexpression of topoisomerases I and II in malignant cells compared to marrow progenitors.

Data set [2] relates to HCT116 cells. In words: Colony survival assay, HCT116. The format is cell-based, human. As to conditions: HCT116. The source says: (§2) Chemicals and Reagents. BG was generously provided by Dr. Robert Moschel (Frederick Cancer Research and Development Center, National Cancer Institute). Stock solution was made in dimethylsulfoxide. TMZ and BCNU were obtained from the Drug Synthesis and Chemistry Branch, Drug Therapeutic Program, National Cancer Center Institute. PD128763 was a gift from Park-Davis Pharmaceutical Division. 6-AN, 3-AB, MX and methylmethane sulfonate (MMS) were purchased from Sigma (ST. Louis, Mo.). Stock solutions of PD128763, 3-AB and 6-AN were prepared by dissolving in dimethylsulfoxide and added to cell culture at a final concentration of <1% DMSO, when cells were treated with these compounds. MX was dissolved in sterilized water (pH 7.0). All stock solutions were kept at −20° C. BCNU was prepared fresh in 0.5 ml of 100% ethanol, diluted in PBS, and used with in 10 min. Colony Survival Assay. SW480 cells were obtained from the ATCC. HCT116 cells were obtained from R. Boland, University of Michigan Medical Center. All cell lines were cultured in appropriate growth medium.
(§3) Cells (2000/dish) were plated, adhered for 18 hrs and treated with TMZ or
(§4) MMS plus or minus modifiers such as […], MX, 6-AN, 3-AB or PD128763, according to experimental protocol. After treatment, cells were washed and fresh medium was replaced. The cells were grown for a further 7 days prior to staining with methylene blue for determination of colonies containing more than 50 cells. Comparisons of drug induced cytotoxicity consisted of a calculation of the dose modification factor (DMF), defined as the ratio of the IC50 of either TMZ or MMS in the absence to that in the presence of indicted modifier(s), i.e., DMF═IC50 for TMZ alone/IC50 for TMZ plus modifier(s).

Data set [3] has as its system AP sites in calf thymus DNA. In words: Competitive AP site binding assayed by Aldehyde Reactive Probe (ARP). As to conditions: MX 5-20 mM. From the text:
1. Analysis of chemical—modified AP Sites assayed by Aldehyde Reactive Probe (ARP). This is a competitive assay to measure the reactivity with AP site between ARP reagent (Dojindo Molecular Technologies Inc., Gaithersburg, Md.) and the screening compounds. ARP and MX have a similar reactivity with AP sites. They react specifically with an aldehyde group that is open ring form of the AP sites. Thus this assay will allow identification of compounds with potential to block AP site repair based on the binding affinity and efficiency to AP sites of screening compounds compared to ARP and MX.
a. AP site standard preparation: AP sites were produced in a calf thymus DNA by heat/acid-buffer solution. Intact calf thymus DNA was added to sodium citrate buffer (10 mM sodium citrate containing 10 mM NaH2PO4 and 10 mM NaCl, pH 5.0) and held at 70° C. for 30 min. The reaction was stopped by chilling rapidly on ice, and the DNA was then precipitated with cold ethanol, washed with 70% ethanol, dried, and resuspended in sterilized distilled water.
b. […] After NC membrane was rinsed with washing buffer containing NaCl (0.26 M), EDTA (1 mM), Tris-HCI (20 mM), and Tween 20 (1%), ARP-AP sites are visualized with ECL reagents (Amersham Corp.) (FIG. 22A) and quantitated by scanning densitometer (FIG. 22B).

Data set [4] can be described thus: Toxicity evaluation in mice bearing HCT116 xenograft. As to conditions: Table 2 doses.
Description: Tumors in Nude Mice. Tumor cells (5×10^6) were injected into flanks of female athymic HSD nude mice, at 6-8 weeks of age. The tumors were measured with calipers using the National Cancer Institute formula: V=L(mm)×I^2 (mm)/2 where L is the largest diameter and I is the smallest diameter of the tumor. […] Toxicity Evaluation. Toxicity after treatment was evaluated by body weight measurements and peripheral WBC counting. Body weight was measured three times weekly from the first treatment until 2 weeks after the end of treatment. The weight loss was expressed as a percentage of the initial weight (initial weight−lowest weight/initial weight×100%).
The subject of data set [5] is human bone marrow cells (CD34+ cells). The data set can be described thus: Colony forming assay, human bone marrow / CD34+ cells. As to conditions: human CD34+ cells; colony forming assay. Format: cell-based.
Description: as §1

Data set [6] relates to HCT116 cells. In words: Flow cytometry cell cycle distribution and apoptosis, HCT116. The format is cell-based, human. On the technique in general: In flow cytometry, cells or beads pass a laser one at a time.
The next data set has as its system SW480 xenograft. In words: SW480 xenograft tumor response in nude mice. The format is in vivo. Conditions: SW480 xenograft; Table 1 doses: TMZ 120, MX 2, BG+TMZ 30/120, MX+TMZ 2/120 mg/kg; daily for 5 days.
A further data set concerns SW480 cells. The data set can be described thus: Colony survival assay, SW480. Format: cell-based, human.
Description: as §2, §3, §4

As to `CON` [MX, methoxyamine], the “potentiation of TMZ cytotoxicity” value in data set [1] was “no potentiation”; in data set [5], “no potentiation”; in the data set on SW480 cells (SW480 tumor cells, Example 13) it was 4 fold. The “cytotoxicity of MX alone” value in the data set with HCT116 cells [2] (6 mM MX) was “nontoxic”; in the data set with SW480 cells (SW480, 6 mM MX), “nontoxic”. The “DMF of MMS” value in the data set with HCT116 cells [2] (MMS 0-3 mM plus 6 mM MX 1 hr vs MMS alone) was 2.3. For the same compound, the “DMF (IC50 for TMZ alone/IC50 for TMZ plus modifier)” value in the data set with HCT116 cells [2] (modifier plus TMZ vs TMZ alone) is on record as 3.1 fold. Besides, the “effect of modifier on BCNU cytotoxicity” value in the data set with HCT116 cells [2] (without BG) is “No enhancement”; in the data set with SW480 cells (SW480, without BG) it was “No enhancement”. Besides, in data set [3], the “AP binding sites blocked (relative reduction of ARP-detected AP sites by densitometry)” value was 38-80%. Moreover, the “Toxicity (max. BW loss)” value in data set [4] turned out to be 8.3%. Besides, the “effect on cell cycle distribution” value in the data set with HCT116 cells [6] is on record as “did not affect”. For the same compound, the “Tumor growth delays” value in the data set on SW480 xenograft was 2.0 ± 0.5 days. Besides, the “DMF / potentiation of MMS cytotoxicity” value in the data set with SW480 cells (SW480, MMS 0-3 mM plus 6 mM MX and/or BG vs MMS alone) worked out at 2.0 fold. For the same compound, in the data set with SW480 cells (SW480, modifier(s) plus TMZ vs TMZ alone), the “DMF (IC50 for TMZ alone/IC50 for TMZ plus modifier(s))” value is 2.4 fold.
